From patent publication US20250064773A1, “TARGETING ERO1 ALPHA WITH AURONE DERIVATIVES” (West Virginia University Board of Governors on behalf of …, priority 2021, published 2025)

Assays:
[1] = molecular target: T1, purified human ERO1α (Homo sapiens, UniProt Q96HE7, C104A/C131A/C166A); experiment: Lineweaver-Burk enzyme kinetics with varying PDI (Amplex Red); assay type: biochemical; settings: varying PDI and T151742 concentrations
T1 construct: made in house
T1 sequence (Q96HE7 22-468 C104A/C131A/C166A): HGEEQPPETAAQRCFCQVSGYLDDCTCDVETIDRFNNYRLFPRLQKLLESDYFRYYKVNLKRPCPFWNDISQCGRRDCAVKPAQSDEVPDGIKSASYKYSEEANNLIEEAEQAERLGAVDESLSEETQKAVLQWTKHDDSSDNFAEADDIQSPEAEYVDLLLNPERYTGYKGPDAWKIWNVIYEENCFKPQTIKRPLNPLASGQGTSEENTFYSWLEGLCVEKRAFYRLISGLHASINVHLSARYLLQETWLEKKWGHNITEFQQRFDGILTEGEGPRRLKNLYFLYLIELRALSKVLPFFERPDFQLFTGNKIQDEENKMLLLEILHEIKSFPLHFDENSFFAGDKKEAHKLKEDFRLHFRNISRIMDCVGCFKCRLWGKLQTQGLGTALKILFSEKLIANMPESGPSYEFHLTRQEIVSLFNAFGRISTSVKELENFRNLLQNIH

[2] = molecular target: T2, LSD-1 (Homo sapiens, UniProt O60341); experiment: LSD-1 inhibitor screening assay kit (demethylase activity); assay type: biochemical; settings: at concentrations ≤25 μM
Description: T151742 was used to generate a concentration response. […] Experiments performed in triplicates and shown is the mean and standard deviation of three independent experiments.

[3] = molecular target: T2, LSD-1; experiment: Cellular thermal shift assay (CETSA) in PC-9 cells, LSD-1; assay type: cell-based; settings: 100 μM
Description: To date activity of T151742 towards other flavoenzymes has not been identified at this time. We utilized the Cellular Thermal Shift Assay (CETSA) to determine target engagement of T151742 in vitro using the non-small cell lung cancer (NSCLC) cell line PC-9. The EGFR driven PC-9 cell line was chosen as new treatment strategies are needed in EGFR driven NSCLC as most patients relapse and become resistant to current targeted therapies with development of further mutations such as T790M, C797S as well as emergence of EGFR independent tumors^42, 43. […] First, we determined the aggregation temperature (Tagg) of ERO1α, ERO1β, and LSD-1, which are all FAD dependent enzymes and potential in vitro targets of T15742. […]
Upon addition of T151742, Tagg was quantified for ERO1α, ERO1β, and LSD-1. Quantification of the average of n=3 independent experiments based on western blot analysis for ERO1α, ERO1β, and LSD-1. […] Cellular viability was determined by MTT assay. n=3 independent experiments performed in quadruplicates. ****p<0.0001; by two-way ANOVA.
Cell Lines: PC-9 cell line used was obtained from Sigma Aldrich and grown in RPMI 1640 medium with 10% fetal bovine serum and 1% penicillin/streptomycin. […] Plate was then read on the BioTek Cytation 5 at 530/590 nm. […]

## CN(C)c1ccc(/C=C2\Oc3cc(O)ccc3C2=O)cc1 [Compound T151742]
[1]
  mechanism of inhibition of ERO1α: non-competitive (mixed) inhibitor
[2]
  inhibition of LSD-1 demethylase activity: did not inhibit
[3]
  change of Tagg for LSD-1: did not change
